Patent US20240182487A1, “MACROCYCLES AND THEIR USE” (BLOSSOMHILL THERAPEUTICS, INC., priority 2020, published 2024)

target: EGFR (Δ746-750) (Homo sapiens (Human), UniProt P00533, DEL746-750); experiment: HotSpot radiometric kinase assay, EGFR Δ746-750; type: biochemical; details: radiometric filter-binding, 10 μM ATP
Sequence (P00533 other isoform, or with tags, fused parts or gaps del 1-668/del 746-750 limits assumed): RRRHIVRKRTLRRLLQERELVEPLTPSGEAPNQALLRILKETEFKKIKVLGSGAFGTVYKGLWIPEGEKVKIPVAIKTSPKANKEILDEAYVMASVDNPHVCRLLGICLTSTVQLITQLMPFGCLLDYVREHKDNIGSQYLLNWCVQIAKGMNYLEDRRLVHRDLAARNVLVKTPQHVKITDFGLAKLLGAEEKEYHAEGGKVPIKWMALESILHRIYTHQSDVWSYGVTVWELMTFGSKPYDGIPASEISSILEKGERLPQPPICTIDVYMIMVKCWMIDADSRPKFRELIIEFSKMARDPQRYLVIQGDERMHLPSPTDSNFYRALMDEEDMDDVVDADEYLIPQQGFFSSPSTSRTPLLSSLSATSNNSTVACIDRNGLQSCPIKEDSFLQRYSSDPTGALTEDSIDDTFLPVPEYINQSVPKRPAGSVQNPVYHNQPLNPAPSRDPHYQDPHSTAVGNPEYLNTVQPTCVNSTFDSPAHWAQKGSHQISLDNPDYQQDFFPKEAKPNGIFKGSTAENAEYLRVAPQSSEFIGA

Compared with CN1CC[C@@H](NC(=O)c2ccc3c(c2)OCCOCc2c(cnn2C)-c2cc4c(n[nH]c4cn2)/C=C/3)C1 [Cpd. 87, (11E)-1-methyl-N-[(3R)-1-methylpyrrolidin-3-yl]-1,18,19,21-tetrahydro-8H-10,7,4-(ethan[1]yl[1,2]diylidene)pyrazolo[3,4-f][1,4,9,12,13]benzodioxatriazacyclooctadecine-15-carboxamide], CN1CCC(NC(=O)c2ccc3c(c2)OCCOCc2c(cnn2C)-c2cc4c(n[nH]c4cn2)/C=C/3)CC1 [Cpd. 85, (11E)-1-methyl-N-(1-methylpiperidin-4-yl)-1,18,19,21-tetrahydro-8H-10,7,4-(ethan[1]yl[1,2]diylidene)pyrazolo[3,4-f][1,4,9,12,13]benzodioxatriazacyclooctadecine-15-carboxamide] is 2-fold higher in IC50: 34.6 nM for the first, 70 nM for the second.

Compared with Cn1ncc2c1OCCCOc1ccc(C(=O)N3CCCC3)cc1/C=C/c1n[nH]c3cnc-2cc13 [Cpd. 72, [(11E)-1-methyl-19,20-dihydro-1H,8H,18H-10,7,4-(ethan[1]yl[1,2]diylidene)pyrazolo[3,4-f][1,5,9,12,13]benzodioxatriazacyclooctadecin-14-yl](pyrrolidin-1-yl)methanone], COC(=O)c1ccc2c(c1)/C=C/c1n[nH]c3cnc(cc13)-c1cnn(C)c1OCCCO2 [Cpd. 68, methyl (11E)-1-methyl-19,20-dihydro-1H,8H,18H-10,7,4-(ethan[1]yl[1,2]diylidene)pyrazolo[3,4-f][1,5,9,12,13]benzodioxatriazacyclooctadecine-14-carboxylate] is 5.1-fold higher in IC50: 18.3 nM for the first, 93.3 nM for the second.

Going from Cn1ncc2c1OCCCOc1cc(C(=O)O)ccc1/C=C/c1n[nH]c3cnc-2cc13 [Cpd. 73, (11E)-1-methyl-19,20-dihydro-1H,8H,18H-10,7,4-(ethan[1]yl[1,2]diylidene)pyrazolo[3,4-f][1,5,9,12,13]benzodioxatriazacyclooctadecine-15-carboxylic acid] to COC(=O)c1ccc2c(c1)OCCCOc1c(cnn1C)-c1cc3c(n[nH]c3cn1)/C=C/2 [Cpd. 67, methyl (11E)-1-methyl-19,20-dihydro-1H,8H,18H-10,7,4-(ethan[1]yl[1,2]diylidene)pyrazolo[3,4-f][1,5,9,12,13]benzodioxatriazacyclooctadecine-15-carboxylate], the IC50 rises from 35.8 nM to 1530 nM (43-fold).

CN1CC[C@H](NC(=O)c2ccc3c(c2)OCCCOc2c(cnn2C)-c2cc4c(n[nH]c4cn2)/C=C/3)C1 [Cpd. 88, (11E)-1-methyl-N-[(3S)-1-methylpyrrolidin-3-yl]-19,20-dihydro-1H,8H,18H-10,7,4-(ethan[1]yl[1,2]diylidene)pyrazolo[3,4-f][1,5,9,12,13]benzodioxatriazacyclooctadecine-15-carboxamide] and CN1CC[C@@H](NC(=O)c2ccc3c(c2)OCCCOc2c(cnn2C)-c2cc4c(n[nH]c4cn2)/C=C/3)C1 [Cpd. 82, (11E)-1-methyl-N-[(3R)-1-methylpyrrolidin-3-yl]-19,20-dihydro-1H,8H,18H-10,7,4-(ethan[1]yl[1,2]diylidene)pyrazolo[3,4-f][1,5,9,12,13]benzodioxatriazacyclooctadecine-15-carboxamide] are within 1.5-fold of each other in IC50: 24.6 nM for the first, 28.3 nM for the second.

First: CN1CC(NC(=O)c2ccc3c(c2)OCCCOc2c(cnn2C)-c2cc4c(n[nH]c4cn2)/C=C/3)C1 [Cpd. 83, (11E)-1-methyl-N-(1-methylazetidin-3-yl)-19,20-dihydro-1H,8H,18H-10,7,4-(ethan[1]yl[1,2]diylidene)pyrazolo[3,4-f][1,5,9,12,13]benzodioxatriazacyclooctadecine-15-carboxamide]
Second: CN1CCC(NC(=O)c2ccc3c(c2)OCCCOc2c(cnn2C)-c2cc4c(n[nH]c4cn2)/C=C/3)CC1 [Cpd. 78, (11E)-1-methyl-N-(1-methylpiperidin-4-yl)-19,20-dihydro-1H,8H,18H-10,7,4-(ethan[1]yl[1,2]diylidene)pyrazolo[3,4-f][1,5,9,12,13]benzodioxatriazacyclooctadecine-15-carboxamide]
The IC50 of the first is 6.5-fold higher: 34.4 nM for the first, 5.3 nM for the second.

First: CNC(=O)c1ccc2c(c1)/C=C/c1n[nH]c3cnc(cc13)-c1cnn(C)c1OCCCO2 [Cpd. 86, (11E)-N,1-dimethyl-19,20-dihydro-1H,8H,18H-10,7,4-(ethan[1]yl[1,2]diylidene)pyrazolo[3,4-f][1,5,9,12,13]benzodioxatriazacyclooctadecine-14-carboxamide]
Second: CC(C)NC(=O)c1ccc2c(c1)OCCCOc1c(cnn1C)-c1cc3c(n[nH]c3cn1)/C=C/2 [Cpd. 77, (11E)-1-methyl-N-(propan-2-yl)-19,20-dihydro-1H,8H,18H-10,7,4-(ethan[1]yl[1,2]diylidene)pyrazolo[3,4-f][1,5,9,12,13]benzodioxatriazacyclooctadecine-15-carboxamide]
The IC50 of the first is 2.2-fold lower: 15.6 nM for the first, 34.6 nM for the second. The first is the more potent here.

CN(C)CCCNC(=O)c1ccc2c(c1)/C=C/c1n[nH]c3cnc(cc13)-c1cnn(C)c1OCCCO2 [Cpd. 70, (11E)-N-[3-(dimethylamino)propyl]-1-methyl-19,20-dihydro-1H,8H,18H-10,7,4-(ethan[1]yl[1,2]diylidene)pyrazolo[3,4-f][1,5,9,12,13]benzodioxatriazacyclooctadecine-14-carboxamide] and CN(C)CCNC(=O)c1ccc2c(c1)OCCCOc1c(cnn1C)-c1cc3c(n[nH]c3cn1)/C=C/2 [Cpd. 74, (11E)-N-[2-(dimethylamino)ethyl]-1-methyl-19,20-dihydro-1H,8H,18H-10,7,4-(ethan[1]yl[1,2]diylidene)pyrazolo[3,4-f][1,5,9,12,13]benzodioxatriazacyclooctadecine-15-carboxamide] are within 1.5-fold of each other in IC50: 2.9 nM for the first, 4 nM for the second.

Going from COC(=O)c1ccc2c(c1)/C=C/c1n[nH]c3cnc(cc13)-c1cnn(C)c1COCCO2 [Cpd. 75, methyl (11E)-1-methyl-1,18,19,21-tetrahydro-8H-10,7,4-(ethan[1]yl[1,2]diylidene)pyrazolo[3,4-f][1,4,9,12,13]benzodioxatriazacyclooctadecine-14-carboxylate] to COC(=O)c1ccc2c(c1)OCCOCc1c(cnn1C)-c1cc3c(n[nH]c3cn1)/C=C/2 [Cpd. 69, methyl (11E)-1-methyl-1,18,19,21-tetrahydro-8H-10,7,4-(ethan[1]yl[1,2]diylidene)pyrazolo[3,4-f][1,4,9,12,13]benzodioxatriazacyclooctadecine-15-carboxylate], the IC50 rises from 51 nM to 1000 nM (20-fold).

Going from Cn1ncc2c1COCCOc1ccc(C(=O)O)cc1/C=C/c1n[nH]c3cnc-2cc13 [Cpd. 92, (11E)-1-methyl-1,18,19,21-tetrahydro-8H-10,7,4-(ethan[1]yl[1,2]diylidene)pyrazolo[3,4-f][1,4,9,12,13]benzodioxatriazacyclooctadecine-14-carboxylic acid] to CCNC(=O)c1ccc2c(c1)/C=C/c1n[nH]c3cnc(cc13)-c1cnn(C)c1COCCO2 [Cpd. 89, (11E)-N-ethyl-1-methyl-1,18,19,21-tetrahydro-8H-10,7,4-(ethan[1]yl[1,2]diylidene)pyrazolo[3,4-f][1,4,9,12,13]benzodioxatriazacyclooctadecine-14-carboxamide], the IC50 falls from 47.1 nM to 23.8 nM (2-fold).

Compared with CCNC(=O)c1ccc2c(c1)OCCOCc1c(cnn1C)-c1cc3c(n[nH]c3cn1)/C=C/2 [Cpd. 84, (11E)-N-ethyl-1-methyl-1,18,19,21-tetrahydro-8H-10,7,4-(ethan[1]yl[1,2]diylidene)pyrazolo[3,4-f][1,4,9,12,13]benzodioxatriazacyclooctadecine-15-carboxamide], CN(C)CCNC(=O)c1ccc2c(c1)/C=C/c1n[nH]c3cnc(cc13)-c1cnn(C)c1COCCO2 [Cpd. 90, (11E)-N-[2-(dimethylamino)ethyl]-1-methyl-1,18,19,21-tetrahydro-8H-10,7,4-(ethan[1]yl[1,2]diylidene)pyrazolo[3,4-f][1,4,9,12,13]benzodioxatriazacyclooctadecine-14-carboxamide] is 14-fold lower in IC50: 240 nM for the first, 16.8 nM for the second.

Going from CN1CCC(CNC(=O)c2ccc3c(c2)/C=C/c2n[nH]c4cnc(cc24)-c2cnn(C)c2COCCO3)CC1 [Cpd. 94, (11E)-1-methyl-N-[(1-methylpiperidin-4-yl)methyl]-1,18,19,21-tetrahydro-8H-10,7,4-(ethan[1]yl[1,2]diylidene)pyrazolo[3,4-f][1,4,9,12,13]benzodioxatriazacyclooctadecine-14-carboxamide] to CN1CCC(CNC(=O)c2ccc3c(c2)/C=C/c2n[nH]c4cnc(cc24)-c2cnn(C)c2OCCCO3)CC1 [Cpd. 76, (11E)-1-methyl-N-[(1-methylpiperidin-4-yl)methyl]-19,20-dihydro-1H,8H,18H-10,7,4-(ethan[1]yl[1,2]diylidene)pyrazolo[3,4-f][1,5,9,12,13]benzodioxatriazacyclooctadecine-14-carboxamide], the IC50 falls from 17.6 nM to 2.2 nM (8-fold). The second is the more potent here.

First: CN1CCC(NC(=O)c2ccc3c(c2)/C=C/c2n[nH]c4cnc(cc24)-c2cnn(C)c2OCCCO3)CC1 [Cpd. 97, (11E)-1-methyl-N-(1-methylpiperidin-4-yl)-19,20-dihydro-1H,8H,18H-10,7,4-(ethan[1]yl[1,2]diylidene)pyrazolo[3,4-f][1,5,9,12,13]benzodioxatriazacyclooctadecine-14-carboxamide]
Second: Cn1ncc2c1OCCCOc1ccc(F)cc1/C=C/c1n[nH]c3cnc-2cc13 [Cpd. 100, (11E)-14-fluoro-1-methyl-19,20-dihydro-1H,8H,18H-10,7,4-(ethan[1]yl[1,2]diylidene)pyrazolo[3,4-f][1,5,9,12,13]benzodioxatriazacyclooctadecine]
The IC50 of the first is 2.5-fold lower: 9.7 nM for the first, 24 nM for the second. The first is the more potent here.

First: Cc1ccc2c(n1)/C=C/c1n[nH]c3cnc(cc13)-c1cnn(C)c1C(C)OCCO2 (centres unmarked) [Cpd. 95, (18E)-8,9,16-trimethyl-8,9,11,12-tetrahydro-2H-5,3-(azenometheno)dipyrazolo[3′,4′:9,10;4″,3″:13,14][1,4]dioxacyclopentadecino[6,5-b]pyridine]
Second: CCc1c2c(nn1C)C(=O)N(C)CCOc1c[nH]c(=O)cc1-c1cc3c(n[nH]c3cn1)/C=C/2 [Cpd. 38, (18E)-17-ethyl-13,16-dimethyl-2,12,13,16-tetrahydro-5,3-(azenometheno)dipyrazolo[3,4-f:3′,4′-j]pyrido[4,3-n][1,4]oxazacyclopentadecine-7,14(8H,11H)-dione]
The IC50 of the first is 6.9-fold lower: 139 nM for the first, 964 nM for the second.
